Laboratory results reported in patent publication US20150204881A1, “Biomarkers For Diagnosis Of Diabetes And Monitoring Of Anti-Diabetic Therapy” (Sumitomo Bakelite Co., Ltd., priority 2012, published 2015).

Legend:
db/db mice [1] = experiment: HbA1c in treated db/db mice; type: in vivo, mouse
db/db mice [2] = experiment: Plasma N-glycan profiling (MALDI-TOF MS) in insulin detemir- vs vehicle-treated db/db mice; type: in vivo, mouse
Method: A 10 μl aliquot of each plasma sample was spiked with internal standard (700 pmol) and analyzed for N-linked glycans using Ezose Sciences' GLYCANMAP methodology. The samples were denatured and then digested with trypsin, followed by heat-inactivation. The mixture was then treated with PNGase F. After enzymatic release of N-glycans, aliquots were subjected to solid-phase processing using BLOTGLYCO beads. Following capture on the beads, the sialic acid residues were methyl esterified. The glycans were simultaneously released from the beads and labeled, and then aliquots of the recovered materials were spotted onto a MALDI target plate. Steps from initial aliquoting to spotting on the MALDI plate were performed using the fully automated SWEETBLOT technology. MALDI-TOF MS analysis was performed on an ultraflex III mass spectrometer (Bruker Daltonics) in the positive-ion, reflector mode. Each sample from the BLOTGLYCO bead processing step was spotted in quadruplicate, and spectra were obtained in an automated manner using the AutoXecute feature in flexControl software (Bruker Daltonics). Proposed glycan structures were assigned based on molecular weight. These methods have been described previously by Nishimura, Furukawa and Miura (Nishimura et al., Angew Chem. Int. Ed. Engl., 44: 91-96 (2004); Furukawa et al., Anal. Chem., 80: 1094-1101 (2008); Miura et al., Chem.-A Eur. J, 13: 4797-4804 (2007)). Alternatively, standard fluorescent HPLC or capillary electrophoresis methods with 2-AA, 2-AB, or APTS labeling can be used to monitor the glycan levels and changes in glycan patterns.
A further study was undertaken to evaluate the performance of candidate biomarkers discovered using rosiglitazone in mice treated with a diabetes drug having a different mechanism of action. The candidate biomarkers that were identified in Example 1 were evaluated in db/db mice treated with insulin detemir and vehicle.
Plasma samples were analyzed from ten db/db mice at baseline (0 days) and from 20 db/db mice (ten vehicle and ten insulin detemir-treated) at 7, 14, and 21 days. Sample preparation and analysis followed the protocol described in Example 1.
Concentrations of individual glycans in insulin detemir- and vehicle-treated db/db mice were compared at each time-point using the Student's t-test. N-glycans which yielded p-values <0.05 in this analysis were considered significant. Time-dependence was also evaluated for each of the candidate biomarkers by comparing each time-point to baseline.

[3] = db/db mice treated with insulin detemir vs vehicle
[4] = plasma, db/db mice vs vehicle, 7, 14, 21 days

Compound | Time until HbA1c difference reached p<0.001 significance (db/db mice [1]; first rosiglitazone study, db/db mice vs vehicle) [days] | Changes in Glycan 540020 (db/db mice [2]; [3]) | Changes in O-acetylated N-glycans (db/db mice [2]; [3]) | Changes in fucosylated N-glycans (db/db mice [2]; [3]) | High mannose glycans (520000, 620000, 720000, 820000) with insulin detemir treatment (db/db mice [2]; db/db mice vs vehicle, significant at Day 7, 14 and 21, lower in magnitude than with rosiglitazone) | Hybrid glycans (430010, 530010, 630010) vs vehicle-treated controls (db/db mice [2]; db/db mice, as early as Day 7) | Direction of Change with Insulin Detemir: High Mannose glycan 520000 (db/db mice [2]; [4]) | Direction of Change with Insulin Detemir: High Mannose glycan 620000 (db/db mice [2]; [4]) | Direction of Change with Insulin Detemir: High Mannose glycan 720000 (db/db mice [2]; [4]) | Direction of Change with Insulin Detemir: High Mannose glycan 820000 (db/db mice [2]; [4]) | Direction of Change with Insulin Detemir: Hybrid glycan 430010 (db/db mice [2]; [4]) | Direction of Change with Insulin Detemir: Hybrid glycan 530010 (db/db mice [2]; [4]) | Direction of Change with Insulin Detemir: Hybrid glycan 630010 (db/db mice [2]; [4]) | Changes in HbA1c (db/db mice [1]; insulin-treated db/db mice, compared with rosiglitazone)
CN(CCOc1ccc(CC2SC(=O)NC2=O)cc1)c1ccccn1 (centres unmarked) [Rosiglitazone] | 21 |  |  |  |  |  |  |  |  |  |  |  |  | 
insulin detemir |  | no significant changes | no significant changes | no significant changes | lower levels | significant decreases | Decreased | Decreased | Decreased | Decreased | Decreased | Decreased | Decreased | more subtle changes
